Legend:
Assay type in all cases: functional
Olepa ricini [1] = experiment: Antifeedant activity against moulted fifth larval stage of Olepa ricini infested on castor leaves assessed as feeding deterrence index at 200 ppm by leaf disk assay relative to control
Olepa ricini [2] = experiment: Antifeedant activity against moulted fifth larval stage of Olepa ricini infested on castor leaves assessed as feeding deterrence index at 2000 ppm by leaf disk assay relative to control
Euproctis fraterna [3] = experiment: Antifeedant activity against moulted fifth larval stage of Euproctis fraterna infested castor leaves assessed as feeding deterrence index at 0.2 ppm by leaf disk assay relative to control
Euproctis fraterna [4] = experiment: Antifeedant activity against moulted fifth larval stage of Euproctis fraterna infested castor leaves assessed as feeding deterrence index at 2 ppm by leaf disk assay relative to control
Euproctis fraterna [5] = experiment: Antifeedant activity against moulted fifth larval stage of Euproctis fraterna infested castor leaves assessed as feeding deterrence index at 20 ppm by leaf disk assay relative to control
Euproctis fraterna [6] = experiment: Antifeedant activity against moulted fifth larval stage of Euproctis fraterna infested castor leaves assessed as feeding deterrence index at 200 ppm by leaf disk assay relative to control
Euproctis fraterna [7] = experiment: Antifeedant activity against moulted fifth larval stage of Euproctis fraterna infested castor leaves assessed as feeding deterrence index at 2000 ppm by leaf disk assay relative to control
Olepa ricini [8] = experiment: Antifeedant activity against moulted fifth larval stage of Olepa ricini infested on castor leaves assessed as feeding deterrence index at 0.2 ppm by leaf disk assay relative to control
Olepa ricini [9] = experiment: Antifeedant activity against moulted fifth larval stage of Olepa ricini infested on castor leaves assessed as feeding deterrence index at 2 ppm by leaf disk assay relative to control
Olepa ricini [10] = experiment: Antifeedant activity against moulted fifth larval stage of Olepa ricini infested on castor leaves assessed as feeding deterrence index at 20 ppm by leaf disk assay relative to control

| SMILES | FDI (Olepa ricini [1]) [%] | FDI (Olepa ricini [2]) [%] | FDI (Euproctis fraterna [3]) [%] | FDI (Euproctis fraterna [4]) [%] | FDI (Euproctis fraterna [5]) [%] | FDI (Euproctis fraterna [6]) [%] | FDI (Euproctis fraterna [7]) [%] | FDI (Olepa ricini [8]) [%] | FDI (Olepa ricini [9]) [%] | FDI (Olepa ricini [10]) [%] |
| --- | --- | --- | --- | --- | --- | --- | --- | --- | --- | --- |
| C=C1C(=O)O[C@@H]2C/C(C)=C\C(=O)C[C@@H](C)[C@@H](OC(=O)[C@]3(C)O[C@@H]3C)[C@H](O)[C@@H]12 [VICOLIDE D] | 40.93 | 46.88 | 10.99 | 14.44 | 15.37 | 20.46 | 35.68 | 10.61 | 17.74 | 27.62 |
| C=C1C(=O)O[C@H]2[C@H]1[C@@H](OC(=O)[C@@H](C)CC)[C@H](OC(C)=O)[C@H](C)C[C@@H](O)[C@H]1O[C@@]1(C)[C@@H]2O [VICOLIDE C] | 30.59 | 38.26 | 13.98 | 18.6 | 22.37 | 26.76 | 26.56 | 4.44 | 9.61 | 17.74 |
| C=C1C(=O)O[C@@H]2C/C(C)=C\C(=O)C[C@@H](C)[C@@H](OC(=O)/C(C)=C\C)[C@H](O)[C@@H]12 [VICOLIDE B] | 40.93 | 48.68 | 12.17 | 13.98 | 20.28 | 22.54 | 57.03 | 12.83 | 21.06 | 24.36 |
| C=C1C(=O)O[C@H]2[C@H]1[C@@H](O)[C@H](OC(=O)/C(C)=C\C)[C@H](C)[C@@H]1C(=O)C=C(C)[C@H]21 [VICOLIDE A] | 29.66 | 42.86 | 8.43 | 8.99 | 15.33 | 15.33 | 15.06 | 6.17 | 13.35 | 22.28 |

Reference: ChEMBL document CHEMBL3045614, “Antifeedant activity of vicolides from Pentanema indicum” (1999)
